Test results from the NIST ThermoML archive (doi:10.1021/acs.jced.8b00176).
± gives the expanded uncertainty stated by the source.

Assay: xn = mol fraction of the nth substance listed
Details: 100 kPa, Liquid; for viscosity: Falling or rolling sphere viscometry; for speed of sound: Frequency=3 MHz, Single path-length method; for mass density: Vibrating tube method

CCCCn1cc[n+](C)c1.O=S(=O)([O-])C(F)(F)F [1-butyl-3-methylimidazolium trifluoromethanesulfonate] + CC#N
Details | mass density, 298.15 K [kg/m3] | mass density, 303.15 K [kg/m3] | mass density, 308.15 K [kg/m3] | speed of sound, 298.15 K [m/s] | speed of sound, 303.15 K [m/s] | speed of sound, 308.15 K [m/s] | viscosity, 298.15 K [mPa·s] | viscosity, 303.15 K [mPa·s] | viscosity, 308.15 K [mPa·s]
x1 = 0.0911 | 958.58 ± 2 | 954.576 ± 2 | 949.838 ± 2 | 1306.2 ± 2.3 | 1289.2 ± 2.3 | 1272.1 ± 2.3 | 0.94 ± 0.2 | 0.88 ± 0.2 | 0.83 ± 0.2
x1 = 0.2023 | 1074.82 ± 2 | 1070.41 ± 2 | 1066.01 ± 2 | 1330.8 ± 2.3 | 1315.6 ± 2.3 | 1300.6 ± 2.3 | 1.74 ± 0.6 | 1.61 ± 0.6 | 1.58 ± 0.6
x1 = 0.3029 | 1137.12 ± 2.1 | 1132.76 ± 2.1 | 1128.52 ± 2.1 | 1347.2 ± 2.4 | 1333 ± 2.4 | 1318.8 ± 2.4 | 4.03 ± 0.6 | 3.64 ± 0.6 | 3.3 ± 0.6
x1 = 0.3998 | 1179 ± 2.1 | 1174.94 ± 2.1 | 1170.95 ± 2.1 | 1359.4 ± 2.4 | 1346.1 ± 2.4 | 1332.8 ± 2.4 | 6.63 ± 0.6 | 5.9 ± 0.6 | 5.26 ± 0.6
x1 = 0.4994 | 1211.16 ± 2.1 | 1207.1 ± 2.1 | 1202.79 ± 2.1 | 1368.6 ± 2.5 | 1355.7 ± 2.5 | 1343 ± 2.5 | 11.09 ± 0.81 | 9.65 ± 0.61 | 8.46 ± 0.61
x1 = 0.5953 | 1234.14 ± 2.2 | 1230.08 ± 2.2 | 1225.98 ± 2.2 | 1375.6 ± 2.6 | 1363.1 ± 2.6 | 1350.7 ± 2.6 | 19.01 ± 0.83 | 16.22 ± 0.82 | 13.86 ± 0.81
x1 = 0.7029 | 1255.85 ± 2.2 | 1251.97 ± 2.2 | 1247.9 ± 2.2 | 1382.5 ± 2.6 | 1370.6 ± 2.6 | 1358.8 ± 2.6 | 29.57 ± 0.86 | 24.73 ± 0.85 | 20.9 ± 0.83
x1 = 0.8009 | 1271.78 ± 2.3 | 1267.97 ± 2.3 | 1264.18 ± 2.3 | 1386.6 ± 2.7 | 1374.9 ± 2.7 | 1363.4 ± 2.7 | 40.36 ± 0.93 | 33.14 ± 0.89 | 27.82 ± 0.86
x1 = 0.9012 | 1285.59 ± 2.3 | 1281.58 ± 2.3 | 1277.73 ± 2.3 | 1389.8 ± 2.8 | 1378.4 ± 2.8 | 1367 ± 2.8 | 56.57 ± 0.99 | 45.89 ± 0.97 | 37.7 ± 0.92
x1 = 1 | 1297.46 ± 2.4 | 1293.46 ± 2.4 | 1289.47 ± 2.4 | 1393.2 ± 2.8 | 1382.8 ± 2.8 | 1371.7 ± 2.8 | 82.38 ± 1.7 | 66.69 ± 1.2 | 52.86 ± 0.96
